Experimental data reported in a compilation of properties of binary mixtures (doi:10.1016/j.molliq.2022.120052).

Test: xn = mol fraction of the nth substance listed
Settings: 100 kPa

C[n+]1ccn(CCCC#N)c1.O=S(=O)([O-])C(F)(F)F + O=C1CCCO1
electrical conductivity [S/m]
Settings	x1 = 0.1003	x1 = 0.2001	x1 = 0.3003	x1 = 0.3999	x1 = 0.4999	x1 = 0.6002	x1 = 0.7001	x1 = 0.8002	x1 = 0.9004	x1 = 1
288.15 K	0.725	0.798	–	0.353	0.261	–	0.118	0.084	0.05	–
293.15 K	0.834	0.906	0.623	0.434	0.318	0.232	0.156	0.11	–	0.034
298.15 K	0.95	1.02	0.726	0.521	0.385	0.283	0.201	0.142	–	0.048
303.15 K	1.07	1.14	0.835	0.617	–	0.341	0.252	–	–	0.064
308.15 K	1.2	1.26	0.951	0.718	0.539	–	0.309	0.221	0.153	–
313.15 K	1.33	1.4	–	0.83	0.625	–	–	0.269	0.19	0.106
318.15 K	1.48	1.53	1.21	0.947	0.721	0.554	0.441	–	–	–
323.15 K	1.61	1.68	–	1.07	0.821	0.642	0.513	–	–	–
328.15 K	1.76	1.83	1.49	1.2	0.927	0.733	0.592	0.449	0.333	0.205
333.15 K	1.91	1.98	1.64	–	1.04	0.832	0.675	0.52	0.392	0.25
338.15 K	2.07	2.14	–	1.46	1.17	0.945	0.761	0.596	0.454	–
343.15 K	2.22	2.3	1.95	1.6	1.29	1.05	–	0.677	0.519	0.355
